According to the supplement of paper PMC4862054:

Columns and labels:
Settings in all cases: incubation time: 72 h
BT-474 [1] = assay: drug sensitivity score (DSS), CellTiter-Glo (DSS (AUC-based score)); higher = stronger drug effect (viability inhibition or cytotoxicity); extreme values may be limits of the assay
Procedure, shortened: (§1)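 Breast cancer cell lines (20 µl suspension) were seeded into 384-well plates holding compound at 5 concentrations in 10-fold steps over a compound-specific 10,000-fold range, then incubated 72 h. CellTox Green fluorescence (485/520 nm) was read first, then CellTiter-Glo luminescence after 10 min at room temperature. Each plate was normalised to 0.1 % DMSO and a positive kill control. The drug sensitivity score was calculated from the area under the fitted dose-response curve.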

BT-549 = assay: as above
Procedure, shortened: as §1

CAL-120 [2] = assay: as above
Procedure, shortened: as §1

CAL-148 = assay: as above
Procedure, shortened: as §1

CAL-51 = assay: as above
Procedure, shortened: as §1

CAL-85-1 [3] = assay: as above
Procedure, shortened: as §1

DU-4475 = assay: as above
Procedure, shortened: as §1

HCC1143 = assay: as above
Procedure, shortened: as §1

HCC1599 = assay: as above
Procedure, shortened: as §1

HCC1937 = assay: as above
Procedure, shortened: as §1

HDQ-P1 [4] = assay: as above
Procedure, shortened: as §1

Hs578T [5] = assay: as above
Procedure, shortened: as §1

MCF-10A = assay: as above
Procedure, shortened: as §1

MDA-MB-231 = assay: as above
Procedure, shortened: as §1

MDA-MB-436 = assay: as above
Procedure, shortened: as §1

MDA-MB-453 [6] = assay: as above
Procedure, shortened: as §1

MDA-MB-468 [7] = assay: as above
Procedure, shortened: as §1

MFM-223 = assay: as above
Procedure, shortened: as §1

SK-BR-3 [8] = assay: as above
Procedure, shortened: as §1

BT-474 [9] = assay: normalised viability (% of control), CellTiter-Blue; higher = more viable cells (about 100 = DMSO control)
Method: (§2)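 DSRT, CellTiter-Blue viability, 72 h incubation. Signal is normalised to DMSO and benzethonium chloride controls. Value is the normalised response at dose 3.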

CAL-120 [10] = assay: as above
Method: as §2

CAL-85-1 [11] = assay: as above
Method: as §2

HDQ-P1 [12] = assay: as above
Method: as §2

Hs578T [13] = assay: as above
Method: as §2

MDA-MB-453 [14] = assay: as above
Method: as §2

MDA-MB-468 [15] = assay: as above
Method: as §2

SK-BR-3 [16] = assay: as above
Method: as §2

Compound | drug sensitivity score (BT-474 [1]) | drug sensitivity score (BT-549) | drug sensitivity score (CAL-120 [2]) | drug sensitivity score (CAL-148) | drug sensitivity score (CAL-51) | drug sensitivity score (CAL-85-1 [3]) | drug sensitivity score (DU-4475) | drug sensitivity score (HCC1143) | drug sensitivity score (HCC1599) | drug sensitivity score (HCC1937) | drug sensitivity score (HDQ-P1 [4]) | drug sensitivity score (Hs578T [5]) | drug sensitivity score (MCF-10A) | drug sensitivity score (MDA-MB-231) | drug sensitivity score (MDA-MB-436) | drug sensitivity score (MDA-MB-453 [6]) | drug sensitivity score (MDA-MB-468 [7]) | drug sensitivity score (MFM-223) | drug sensitivity score (SK-BR-3 [8]) | normalised viability (BT-474 [9]; 10 nM) | normalised viability (CAL-120 [10]; 10 nM) | normalised viability (CAL-85-1 [11]; 1 nM) | normalised viability (HDQ-P1 [12]; 1 nM) | normalised viability (Hs578T [13]; 10 nM) | normalised viability (MDA-MB-453 [14]; 1 nM) | normalised viability (MDA-MB-468 [15]; 10 nM) | normalised viability (SK-BR-3 [16]; 10 nM) | normalised viability (BT-474 [9]; 100 nM) | normalised viability (CAL-120 [10]; 100 nM) | normalised viability (CAL-85-1 [11]; 10 nM) | normalised viability (HDQ-P1 [12]; 10 nM) | normalised viability (Hs578T [13]; 100 nM) | normalised viability (MDA-MB-453 [14]; 10 nM) | normalised viability (MDA-MB-468 [15]; 100 nM) | normalised viability (SK-BR-3 [16]; 100 nM)
CN(c1ccccc1CNc1nc(Nc2ccc3c(c2)CC(=O)N3)ncc1C(F)(F)F)S(C)(=O)=O | 7.07 | 5.64 | 4.65 | 1.24 | 10.6 | 6.85 | 7.61 | 4.97 | 3.99 | 2.73 | 7.23 | 4.29 | 9.21 | 7.82 | 2.86 | 0 | 8.4 | 2.28 | 5.83 |  |  |  |  |  |  |  |  |  |  |  |  |  |  |  | 
COc1ncc(-c2ccc3nccc(-c4ccnnc4)c3c2)cc1NS(=O)(=O)c1ccc(F)cc1F | 11.2 | 16.8 | 13 | 12.2 | 15.8 | 16.4 | 7.12 | 13.3 | 9.77 | 10.6 | 19.4 | 14 | 17.5 | 10.3 | 11.6 | 19.4 | 13.9 | 14.3 | 20.6 | 64.7% | 60.2% | 88.8% | 97.9% | 76.8% | 89.3% | 86.2% | 32.7% |  |  |  |  |  |  |  | 
C[C@@]1(C(=O)Nc2ccc(F)nc2)CCCN1c1nc(Nc2cc(C3CC3)n[nH]2)c2cccn2n1 | 9.15 | 9.6 | 10.3 | 0 | 9.26 | 10.7 | 5.67 | 6.03 | 5.62 | 0 | 15.8 | 3.38 | 25 | 9.67 | 7.17 | 0 | 16.4 | 10.2 | 6.12 |  |  |  |  |  |  |  |  | 118% | 91.8% | 93.5% | 89.5% | 79.4% | 112% | 101% | 92.6%
Nc1nccc(-c2c(-c3ccc(F)cc3)ncn2C2CCCCC2)n1 | 0.373 | 0 | 0 | 0 | 0.055 | 0.583 | 0 | 0 | 0 | 0 | 0 | 0 | 0.945 | 0 | 0 | 0.568 | 5.85 | 0 | 0 |  |  |  |  |  |  |  |  |  |  |  |  |  |  |  | 
COc1c(C)cnc(Cn2cnc3c(Cl)nc(N)nc32)c1C [BIIB021] | 12.4 | 15.7 | 10.1 | 15.8 | 17.2 | 14.7 | 17.8 | 11.5 | 10.4 | 16.3 | 15.2 | 8.9 | 15.5 | 13.4 | 13.3 | 16.2 | 12.7 | 13.2 | 21.9 |  |  |  |  |  |  |  |  | 59.4% | 27.6% | 87.5% | 114% | 64.7% | 76.4% | 68.9% | 23.9%
CC(C)C[C@H](NC(=O)[C@H](Cc1ccccc1)NC(=O)c1cnccn1)B(O)O [Bortezomib] | 24.4 | 28.8 | 19.9 | 14.4 | 18.3 | 28.4 | 17.5 | 19.3 | 9.67 | 12.9 | 22.6 | 22.8 | 9.83 | 22.4 | 26 | 16.8 | 30.9 | 27.1 | 26.4 | 50.8% | 27.3% | 106% | 83.8% | 87.6% | 105% | 12% | 22.4% |  |  |  |  |  |  |  | 
